{"source": "patent US10011635B2", "about": "“Cyclic peptide conjugates and methods of use” (priority 2013, dated 2018)", "key": {"multiple myeloma (MM)": {"test_system": "multiple myeloma (MM)", "conditions": "summary statement, no test described; cited from earlier work"}, "5TGM1 cells": {"test_system": "5TGM1 cells", "assay": "5TGM1 murine myeloma model in vivo (survival, serum IgG2b)", "conditions": "5TGM1 i.v. in C57BL6/KaLwRij mice; i.v. once weekly for 3 weeks; 10 mg/kg Fc-Sec-MTI-101, 10 mg/kg Fc-stop or MTI-101 0.3285 mg/kg; n=5", "description": "One million 5TGM1 cells were injected intravenously (i.v.) in C57BL6/KaLwRij mice. Mice injected i.v. were treated once weekly for 3 weeks with 10 mg/kg Fc-Sec-MTI-101, 10 mg/kg Fc-stop, or an equal payload of MTI-101 (0.3285 mg/kg). […] Medium survival was 35 days for control and MTI-101 IV equal payload, 26 days for […] and 62 days for Fc-Sec-MTI-101 (n=5 animals per group), as shown in FIG. 18B. IgG2b levels were measured by ELISA 28 days following tumor inoculation.\nThis is an excellent immune competent MM model in which drug response is monitored in the confines of the bone marrow microenvironment. […] 5TGM1 cells (1×10^6 in 100 μL of PBS) were injected intravenously (i.v.) into the tail vein of 6-week old C57 BL/KaLwRij mice (Harlen, Netherlands). Tumor was allowed to engraft for 10 days prior to the initiation of drug treatment.\nTo quantify tumor burden, blood was collected by submandibular bleeding and mice were monitored weekly by measuring 5TGM1 secreted IgG2b (paraprotein) in the serum by ELISA (FIG. 18B). Hind limb paralysis and hunching were considered as additional surrogate markers for morbidity."}, "U266 cells": {"test_system": "U266 cells", "assay": "In vitro cytotoxicity, PI staining and flow cytometry (U266)", "type": "cell-based, human", "conditions": "1 hour at 37° C., PI staining, flow cytometry; compared to medium alone", "procedure": "(§1) The cells were incubated with the conjugates and negative and positive controls for 1 hour at 37° C. followed by propidium iodide (PI) staining and flow cytometry analysis using FSC/SSC scatter densities and fluorescence to distinguish live and dead cells."}, "[1]": {"assay": "Maximum tolerated dose of MTI-101", "set-up": "species or system C57 BL/KaLwRij mice", "conditions": "mouse, in vivo, ip; i.p. 3× weekly for three weeks"}, "H929 cells": {"test_system": "H929 cells", "assay": "In vitro cytotoxicity, PI staining, flow cytometry and microscopy (H929)", "type": "cell-based, human", "conditions": "1 hour at 37° C., flow cytometry, compared to medium alone", "procedure": "FSC/SSC scatter densities distinguished live cells (right population) and dead cells (left population). This was confirmed by PI staining.\nas §1"}}, "note": "Numbered stars: 1 amine (or outer) side, 2 acyl side, 3 side chain; on linkers, the order of the positions; unused ones are H or OH. Bridge positions count the residues as written; N and C are the ends. Square brackets hold non-standard residues; d marks the D form. Peptide text beside a SMILES is read from it. * marks the point of attachment. dProlinol(O-CH2CO) = O=C(COC[C@H]1CCCN1[*:1])[*:2]; N(2-Aminoethyl)Gly = O=C(CN(CCN[*:3])[*:1])[*:2]; Nle = CCCC[C@H](N)C(=O)O; Ms = CS(=O)(=O)*"}
{"smiles": "CCCC[C@@H]1NC(=O)CN(S(C)(=O)=O)CCNC(=O)[C@H](CCCCN)NC(=O)[C@H](CC(C)C)NC(=O)[C@H](CCCCN)NC(=O)[C@H](CC(C)C)NC(=O)[C@H](CCCCN)NC(=O)COC[C@H]2CCCN2C(=O)[C@H](Cc2c[nH]c3ccccc23)NC(=O)[C@H](C)NC(=O)[C@H](C(C)C)NC(=O)[C@H](C(C)C)NC1=O", "note": "[MTI-101] (Ms-[N(2-Aminoethyl)Gly][Nle]VVAW[dProlinol(O-CH2CO)]KLKLK; lactam 1-C)", "values": [{"measurement": "IC50 potency", "setting": "multiple myeloma (MM)", "value": "near nM"}, {"measurement": "Medium survival", "setting": "5TGM1 cells", "value": 35, "unit": "days"}, {"measurement": "cytotoxicity toward U266 cells", "setting": "U266 cells", "value": "clearly killed"}, {"measurement": "MTD", "setting": "[1]", "value": 10, "unit": "mg/kg"}, {"measurement": "cytotoxicity toward H929 cells", "setting": "H929 cells", "value": "clearly killed"}]}
